Measurements taken from US12428403B2, “N-(heterocyclyl and heterocyclylalkyl)-3-benzylpyridin-2-amine derivatives as SSTR4 agonists” (Takeda Pharmaceutical Company Limited, priority 2020, dated 2025).
pEC50: −log10 of the molar value.

These compounds were tested against SSTR4 (Homo sapiens, UniProt P31391) (assay: cell-based).
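Note: CHO-K1 cells overexpressing SSTR4, reduction of forskolin-driven cAMP after 30 min compound exposure at room temperature, cAMP read by HTRF LANCE Ultra kit.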
Protocol: This cell-based assay measures the ability of compounds to inhibit forskolin stimulated cAMP in CHO-K1 cells overexpressing SSTR4. CHO-K1 cells overexpressing SSTR4 (CHO-SSTR4) are purchased from DiscoveRx (product code 95-0059C2). The CHO-SSTR4 cells are maintained in F12K media with 10% Fetal Bovine Serum (Hyclone), 1% Pen/Strep (Life Technologies), and 800 μg/mL G418 (Life Technologies). To perform the assay, 3000 cells are plated per well in white 384-well plate (Corning 3570) in 50 complete media and the cells are allowed to attach for 16 hours in a 37° C., 5% CO2 incubator. The next day, the culture media is removed from the cells and the cells are washed (added then removed) with Krebs Ringer Buffer (ZenBio, KRB-1000 mL). Test compounds are suspended in DMSO and diluted in stimulation buffer: Krebs Ringer Buffer plus 0.5% BSA (Roche), 300 μM IBMX (Sigma), and 350 nM forskolin (Sigma). The cells are incubated in 10 μL compound/stimulation buffer for 30 minutes at room temperature. Cellular cAMP levels are detected with a HTRF LANCE Ultra cAMP kit (Perkin Elmer, catalog number TRF0264).
The assay is performed in accordance with the manufacturer's instructions. Five μL of diluted Eu-W8044 labeled streptavidin (dilution: 1:50 in cAMP Detection Buffer) is added to each well. Then 5 μL of diluted biotin cAMP (dilution: 1:150 in cAMP Detection Buffer) is added to each well. The plates are covered and allowed to incubate for 60 minutes at room temperature on a shaker. HTRF (665 nm/615 nm) is read on a Perkin Elmer ENVISION plate reader. The pEC50 values are generated using Activity Base for Screening Data Management.

SSTR4, sequence (P31391 whole entry): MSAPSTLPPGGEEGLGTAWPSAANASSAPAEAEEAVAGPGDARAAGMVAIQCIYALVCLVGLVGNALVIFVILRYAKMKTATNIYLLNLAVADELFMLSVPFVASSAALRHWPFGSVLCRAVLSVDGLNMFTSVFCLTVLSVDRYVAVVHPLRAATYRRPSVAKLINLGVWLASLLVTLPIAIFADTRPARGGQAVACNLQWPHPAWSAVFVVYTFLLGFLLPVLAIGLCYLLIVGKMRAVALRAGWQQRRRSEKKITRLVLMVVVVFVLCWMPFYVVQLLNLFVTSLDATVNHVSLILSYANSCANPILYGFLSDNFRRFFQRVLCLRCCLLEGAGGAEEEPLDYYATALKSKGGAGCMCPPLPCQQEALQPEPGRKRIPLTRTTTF

Structure (SMILES)	pEC50
CC1CN(C)CCC1Nc1ncc(C(F)(F)F)nc1Cc1ccc(F)cc1 (mixture of isomers) [Example 91, N-(1,3-dimethylpiperidin-4-yl)-3-(4-fluorobenzyl)-5-(trifluoromethyl)pyrazin-2-amine]	6.18
CC1CN(C)CCC1Nc1ncc(C(N)=O)cc1Cc1ccc(F)cc1 (mixture of isomers) [Example 102, 6-((1,3-dimethylpiperidin-4-yl)amino)-5-(4-fluorobenzyl)nicotinamide]	6.40
CC[C@@H]1CN(C)CC[C@H]1Nc1ncc(C(=O)NC)nc1Cc1ccc(F)cc1 (racemic) [Example 36, 5-((trans-3-ethyl-1-methylpiperidin-4-yl)amino)-6-(4-fluorobenzyl)-N-methylpyrazine-2-carboxamide]	6.65
Cc1nc(N[C@@H]2CCN(C)C[C@H]2C)c(Cc2ccc(F)cc2)nc1C(=O)N(C)C (racemic) [Example 47, 5-((trans-1,3-dimethylpiperidin-4-yl)amino)-6-(4-fluorobenzyl)-N,N,3-trimethylpyrazine-2-carboxamide]	7.32
CC[C@@H]1CN(C)CC[C@H]1Nc1ncc(C(F)(F)F)nc1Cc1ccc(F)cc1 (racemic) [Example 95, N-(trans-3-ethyl-1-methylpiperidin-4-yl)-3-(4-fluorobenzyl)-5-(trifluoromethyl)pyrazin-2-amine]	6.13
Fc1ccc(Cc2nccnc2N[C@@H]2CCNC[C@H]2F)cc1 (racemic) [Example 115, 3-(4-fluorobenzyl)-N-(trans-3-fluoropiperidin-4-yl)pyrazin-2-amine]	6.66
Cc1cccc2nc(Cc3ccccc3)c(NCCN3CCC3)nc12 (single isomer, unassigned) [Example 2, N-(2-(azetidin-1-yl)ethyl)-3-benzyl-8-methylquinoxalin-2-amine]	7.17
Cc1cccc2nc(NCCN3CCC3)c(Cc3ccccc3)nc12 (single isomer, unassigned) [Example 3, N-(2-(azetidin-1-yl)ethyl)-3-benzyl-5-methylquinoxalin-2-amine]	6.34
COc1cccc(Cc2nc3c(C)cccc3nc2NCCN2CCC2)c1 (single isomer, unassigned) [Example 5, N-(2-(azetidin-1-yl)ethyl)-3-(3-methoxybenzyl)-5-methylquinoxalin-2-amine]	6.48
C[C@@H](c1ccc(F)cc1)c1nc(C(N)=O)cnc1NCCN1CCCC1 (single isomer, unassigned) [Example 20]	6.15
C[C@@H](c1ccc(F)cc1)c1nc(C(N)=O)cnc1N[C@@H]1CCN(C)C1 (single isomer, unassigned) [Example 31]	6.48
CNC(=O)c1cnc(N[C@@H]2CCN(C)C2)c([C@@H](C)c2ccc(F)cc2)n1 (single isomer, unassigned) [Example 34]	6.27
CNC(=O)c1cnc(N[C@@H]2CCN(C)C2)c([C@H](C)c2ccc(F)cc2)n1 (single isomer, unassigned) [Example 35]	5.92
C[C@H]1C[C@H](Nc2nccnc2Cc2ccc(F)cc2)CCN1C (single isomer, unassigned) [Example 113, N-(trans-1,2-dimethylpiperidin-4-yl)-3-(4-fluorobenzyl)pyrazin-2-amine]	6.09
C[C@H]1C[C@@H](Nc2nccnc2Cc2ccc(F)cc2)CCN1C (single isomer, unassigned) [Example 114, N-(cis-1,2-dimethylpiperidin-4-yl)-3-(4-fluorobenzyl)pyrazin-2-amine]	6.24
C[C@@H](c1ccc(F)cc1)c1nccnc1NCCN1CCCC1 (single isomer, unassigned) [Example 122]	6.24
Cc1nnc([C@@H](C)c2ccc(F)cc2)c(N[C@@H]2CCN(C)C2)n1 (single isomer, unassigned) [Example 142]	6.92
Cc1nnc([C@@H](C)c2ccc(F)cc2)c(N[C@H]2CCN(C)C2)n1 (single isomer, unassigned) [Example 147]	6.65
Cc1nnc([C@@H](C)c2ccccc2)c(N[C@@H]2CCN(C)C2)n1 (single isomer, unassigned) [Example 150]	6.44
